Several values for one entry are separate records, joined by “and”; a condition that tells them apart may be missing. Identical values can stand only once.
Tests used:
[1] = pKa by spectrophotometric titration; type: physicochemical; conditions: λ 247 nm, pH 6–12, 20 °C
Procedure: We determined pKa values of the amino alcohols 5 (Fig. 9) and 6 (data not shown) using spectrophotometric titration.
Stock solution of amino alcohols 5 and 6 (160 μL, 2 mg/mL methanol) was added to NaCl solution in water (20 mL, 0.1 mol/L), thus resulting in a solution of each amino alcohol 5 and 6 in concentration of 4 × 10^−5 mol/L. Furthermore, solutions of NaOH (0.1 mol/L, 1 mol/L and 2 mol/L) were prepared in NaCl solution in water (100 mL, 0.1 mol/L). NaOH solutions (1.5–20 μL) were added to each solution of amino alcohol 5 or 6, pH values measured and UV spectra (λ 200–350 nm) recorded at pH 6–12. The titrations were performed at rt (20 °C) and inflection points of sigmoid curves at λ 247 nm were calculated as pKa values for both amino alcohols.

[2] = MTT cytotoxicity assay in HepG2 cells; type: cell-based; conditions: human, read-out: LC50, HepG2
Procedure: (§1) Cytotoxicity of amino alcohols 5, 6 and their diastereoisomeric mixture 5/6 was analyzed using MTT cell proliferation assay and the LC50 values were determined in MDCKII wild type, hNPC1L1/MDCKII, and HepG2 cells (Table 2). MDCKII cells stably expressing human Niemann-Pick C1-like protein 1 (hNPC1L1/MDCKII) (Figure S1) are a pharmacologically validated system for investigating NPC1L1-mediated cholesterol uptake. The LC50 values were higher than 100 μM and considered nontoxic in all three cell lines. […] In addition, we tested the in vitro cytotoxicity of ezetimibe 1 and compounds 5, 6, and 5/6 (70:30) in combination with micelles and found all LC50 values to be above 100 μM (Figure S2).
(§2) Madin–Darby Canine Kidney II (MDCKII) cells, MDCKII cells stably expressing human NPC1L1 (hNPC1L1/MDCKII), and human HepG2 liver cells were maintained in DMEM (Dulbecco's Modified Eagle Medium, Invitrogen, USA) containing 100 units/mL penicillin and 100 μg/mL streptomycin supplemented with 10% FCS (Sigma–Aldrich, Germany). The cells were grown at 37 °C in a humidified 5% CO2 incubator. Stable transfection of MDCKII cells with human NPC1L1 protein was performed using Lipofectamine LTX (Invitrogen, USA) according to the manufacturer's protocol. Selection with 1 mg/mL G418 (Sigma–Aldrich, Germany) was started 2 days after transfection. The concentration of G418 was decreased to 500 μg/mL after 14 days. Stably transfected cells were maintained in DMEM containing 100 units/mL penicillin and 100 μg/mL streptomycin supplemented with 10% FCS and 500 μg/mL G418.
MDCKII, hNPC1L1/MDCKII, and HepG2 cells were seeded in 96-well microtiter plates on day 0 at densities of 3000 cells/well. On day 1, tested compounds (73 mM stock solution in DMSO) were added in five consecutive 10-fold dilutions (10^−8 to 10^−4 mol/L) and incubated for 72 h. Cytotoxicity of the compounds was assessed on day 4 by the MTT cell proliferation assay (Sigma–Aldrich, Germany) which detects mitochondrial dehydrogenase activity in viable cells. The results are expressed as LC50 and the values for each compound were calculated from dose–response curves using linear regression analysis. Each concentration was tested in quadruplicate in three independent experiments. Toxicity of the compounds in combination with micelles was also tested using the same method. MDCKII and hNPC1L1/MDCKII were seeded in 96-well microtiter plates (150 μL medium/well) at a density of 2 × 10^5 cells/mL medium 24 h before the experiment. Micelles were prepared according to the modified method reported by Field et al.. In brief, 0.25 mM oleic acid, 50 μM cholesterol, 10 μM compactin, 50 μM mevalonate, 5 mM Na-taurocholate (Sigma–Aldrich, Germany) in DMEM/10% FCS were mixed and sonicated. […] Thereafter, cytotoxicity was determined using the MTT assay.

cholesterol absorption = assay: In vivo acute cholesterol absorption; set-up: species or system C57BL/6 mice; conditions: mice; for In vivo inhibition (%) of cholesterol absorption, Duodenum / In vivo inhibition (%) of cholesterol absorption, Jejunum / In vivo inhibition (%) of cholesterol absorption, Ileum / In vivo inhibition (%) of cholesterol absorption, Liver / In vivo inhibition (%) of cholesterol absorption, Plasma: [3H]cholesterol reduction relative to vehicle
Procedure: In vivo, we first determined the consequences of ezetimibe 1 and amino alcohols 5 and 6 on cholesterol absorption. We therefore gavaged mice with 2 μCi [^3H]cholesterol and 10 mg/kg/day of each compound or vehicle, and radioactivity was measured in plasma, liver, and three equal parts of the intestine (duodenum, jejunum, ileum). Percentage of [^3H]cholesterol reduction is presented relative to vehicle, respectively. […] We therefore increased the dose to 20 mg/kg/day and determined inhibition of cholesterol absorption. The inhibition in duodenum and jejunum was similar to the lower dose, whereas in ileum it raised from 21% to 41% (Table 3). Decreased cholesterol absorption of 5 in the small intestine compared to ezetimibe 1 might be explained by the fact that 2-azetidinones are moderate acyl-coenzyme A:cholesterol acyltransferase inhibitors and their level of activity is highly structure-dependent. It might therefore be speculated that acyl-coenzyme A:cholesterol acyltransferase activity of amino alcohols 5 and 6 and their diastereoisomeric mixtures is altered compared to ezetimibe 1.
Male C57BL/6 mice aged 25–28 weeks were maintained under a 12 h light/12 h dark cycle in a temperature-controlled environment with free access to chow diet (Ssniff, Germany) and water. For 2 days, mice (n = 3–5) were fasted for 4 h and gavaged with corn oil (100 μl) (vehicle) containing ezetimibe 1 (10 mg/kg/day) or compounds 5, 6, and 5/6 (70:30) (10 or 20 mg/kg/day). On day 2, 90 min post vehicle or compound treatment, mice were gavaged with corn oil (200 μl) containing [^3H]cholesterol (2 μCi) ([1,2–3H(N)] cholesterol, 1 mCi/mL, ARC Inc., St. Louis, USA). Plasma, liver, and small intestines were collected 4 h post-gavage. Cholesterol uptake and absorption were determined as previously described.

MDCKII cells = assay: MTT cytotoxicity assay in MDCKII wild type cells; type: cell-based; conditions: 72 h
Procedure: as §1, §2
MDCKII, hNPC1L1/MDCKII, and HepG2 cells were seeded in 96-well microtiter plates on day 0 at densities of 3000 cells/well. On day 1, tested compounds (73 mM stock solution in DMSO) were added in five consecutive 10-fold dilutions (10^−8 to 10^−4 mol/L) and incubated for 72 h. Cytotoxicity of the compounds was assessed on day 4 by the MTT cell proliferation assay (Sigma–Aldrich, Germany) which detects mitochondrial dehydrogenase activity in viable cells. The results are expressed as LC50 and the values for each compound were calculated from dose–response curves using linear regression analysis. Each concentration was tested in quadruplicate in three independent experiments. Toxicity of the compounds in combination with micelles was also tested using the same method. MDCKII and hNPC1L1/MDCKII were seeded in 96-well microtiter plates (150 μL medium/well) at a density of 2 × 10^5 cells/mL medium 24 h before the experiment. Micelles were prepared according to the modified method reported by Field et al.. In brief, 0.25 mM oleic acid, 50 μM cholesterol, 10 μM compactin, 50 μM mevalonate, 5 mM Na-taurocholate (Sigma–Aldrich, Germany) in DMEM/10% FCS were mixed and sonicated. Following the micellar formation, compounds 1, 5, 6, and 5/6 (70:30) (73 mM stock solution in DMSO) were added to the medium and vortexed to obtain the final concentrations of the compounds (25, 50, 100, 150, 200 μM) and applied to the cells for 1 h. Thereafter, cytotoxicity was determined using the MTT assay.

[3] = gavage 10 mg/kg/day for 2 days, 10 mg/kg/day

| Structure (SMILES) | pKa [1] | CC50 at 72 h [2] [µM] | reduction of radioactivity in the small intestine (cholesterol absorption; 10 mg/kg/day, small intestine overall, not statistically significant) [%] | In vivo inhibition (%) of cholesterol absorption, Duodenum (cholesterol absorption; gavage 10 mg/kg/day for 2 days) [%] | In vivo inhibition (%) of cholesterol absorption, Jejunum (cholesterol absorption; gavage 10 mg/kg/day for 2 days) [%] | In vivo inhibition (%) of cholesterol absorption, Ileum (cholesterol absorption; [3]) | In vivo inhibition (%) of cholesterol absorption, Liver (cholesterol absorption; [3]) | In vivo inhibition (%) of cholesterol absorption, Plasma (cholesterol absorption; [3]) | In vivo inhibition (%) of cholesterol absorption, Duodenum (cholesterol absorption; gavage 20 mg/kg/day for 2 days) [%] | In vivo inhibition (%) of cholesterol absorption, Jejunum (cholesterol absorption; gavage 20 mg/kg/day for 2 days) [%] | In vivo inhibition (%) of cholesterol absorption, Liver (cholesterol absorption; gavage 20 mg/kg/day for 2 days) [%] | In vivo inhibition (%) of cholesterol absorption, Plasma (cholesterol absorption; gavage 20 mg/kg/day for 2 days) [%] | In vivo inhibition (%) of cholesterol absorption, Ileum (cholesterol absorption; gavage 20 mg/kg/day for 2 days, 20 mg/kg/day) | LC50, MDCKII (MDCKII cells) | CC50 at 96 h ([2]; 72 h) [µM] | In vivo inhibition (%) of cholesterol absorption, Ileum (cholesterol absorption; gavage 10 mg/kg/day for 2 days) [%] | In vivo inhibition (%) of cholesterol absorption, Liver (cholesterol absorption; gavage 10 mg/kg/day for 2 days) [%] | In vivo inhibition (%) of cholesterol absorption, Plasma (cholesterol absorption; gavage 10 mg/kg/day for 2 days) [%] | In vivo inhibition (%) of cholesterol absorption, Ileum (cholesterol absorption; gavage 20 mg/kg/day for 2 days) [%] | inhibition of [3H]cholesterol in the ileum (cholesterol absorption; span over the 10 and 20 mg/kg/day groups) |
| --- | --- | --- | --- | --- | --- | --- | --- | --- | --- | --- | --- | --- | --- | --- | --- | --- | --- | --- | --- | --- |
| O=C1[C@H](NC[C@H](O)c2ccc(F)cc2)[C@@H](c2ccc(O)cc2)N1c1ccc(F)cc1 [Compound 5] | 9.35 | > 100 | ~22 | 23 ± 18 | 23 ± 13 | 21% and 21 ± 20% | 44% and 44 ± 6 % | 50% and 50 ± 8 % | 18 ± 14 | 19 ± 16 | 33 ± 6 | 52 ± 7 | 41% and 41 ± 12 % |  |  |  |  |  |  |  |
| O=C1[C@H](CC[C@H](O)c2ccc(F)cc2)[C@@H](c2ccc(O)cc2)N1c1ccc(F)cc1 [Compound 1, ezetimibe, reference compound] |  |  |  | 65 ± 1 | 61 ± 2 |  |  |  |  |  |  |  |  | no toxicity | 69.7 | 47 ± 3 | 52 ± 3 | 60 ± 6 |  |  |
| O=C1[C@H](NC[C@@H](O)c2ccc(F)cc2)[C@@H](c2ccc(O)cc2)N1c1ccc(F)cc1 [Compound 6, (3R,4R)-3-[(2S)-2-(4-fluorophenyl)-2-hydroxyethylamino]-1-(4-fluorophenyl)-4-(4-hydroxyphenyl)azetidin-2-one] | 9.35 | > 100 |  | 43 ± 11 | 37 ± 11 |  | 47% and 47 ± 0 % | 32% and 32 ± 5 % | 35 ± 9 | 26 ± 8 | 49 ± 10 | 38 ± 11 |  |  |  | 58 ± 8 |  |  | 60 ± 9 | 58–60% |
| O=C1[C@H](NCC(O)c2ccc(F)cc2)[C@@H](c2ccc(O)cc2)N1c1ccc(F)cc1 (mixture of isomers) [5/6 (70:30), (3R,4R)-3-[(2R/S)-2-(4-fluorophenyl)-2-hydroxyethylamino]-1-(4-fluorophenyl)-4-(4-hydroxyphenyl)azetidin-2-one] |  | > 100 |  |  |  |  |  |  | 49 ± 7 | 48 ± 9 | 70 ± 5 | 64 ± 7 |  |  |  |  |  |  | 41 ± 21 |  |

From publication PMC4237514, “Novel amino-β-lactam derivatives as potent cholesterol absorption inhibitors” (European Journal of Medicinal Chemistry, 2014)
